Data: ChEMBL document CHEMBL4616629, “Diosmin Treats Lipopolysaccharide-Induced Inflammatory Pain and Peritonitis by Blocking NF-κB Activation in Mice” (J Nat Prod, 2020)
The source made the active and inactive calls.

Tests used:
[1] = molecular target: Transcription factor p65 (Mus musculus) (UniProt Q04207); test: Inhibition of NFkappaB in Swiss mouse peritoneal exudates model of LPS-induced inflammatory pain assessed as ratio of phosphorylated NFkappaB p65 at (Ser536 residue) to total NFkappaB p65 at 30 mg/kg, po pretreated for 1 hr followed by LPS-stimulation and measured after 3 hrs by ELISA; type: organism-based
Mus musculus [2] = test: Antiinflammatory activity against Swiss mouse model of LPS-induced peritonitis assessed as decrease in NBT-positive leukocytes in peritoneal exudate at 30 mg/kg, po pretreated for 1 hr followed by LPS-stimulation and measured after 3 hrs by light microscopic based cell counting method; type: functional, organism-based
Mus musculus [3] = test: Antiinflammatory activity against Swiss mouse model of LPS-induced peritonitis assessed as decrease in superoxide anion production in peritoneal wash at 30 mg/kg, po pretreated for 1 hr followed by LPS-stimulation and measured after 3 hrs by NBT based spectrophotometric assay; type: functional, organism-based
Mus musculus [4] = test: Analgesic activity in Swiss mouse model of LPS-induced inflammatory pain assessed as reduction in mechanical hyperalgesia at 30 to 100 mg/kg, po pretreated for 1 hr followed by LPS-stimulation and measured after 1 to 5 hrs by Von Frey test; type: functional, organism-based
Mus musculus [5] = test: Antioxidant activity in Swiss mouse model of LPS-induced inflammatory pain assessed as reduction in lipid peroxidation in hind paw skin at mg/kg, po pretreated for 1 hr followed by LPS-stimulation and measured after 3 hrs by colorimetric based TBARS assay; type: functional, organism-based
Mus musculus [6] = test: Analgesic activity in LPS-induced C57BL/6 mouse harboring LysM-eGFP assessed as decrease in neutrophil recruitment in hind paw skin by measuring fluorescence at 30 mg/kg, po pretreated for 1 hr followed by LPS-stimulation and measured after 5 hrs by confocal microscopic method; type: functional, organism-based
Mus musculus [7] = test: Analgesic activity in LPS-induced Swiss mouse assessed as increase in right/left paw ratio at 30 mg/kg, po pretreated for 1 hr followed by LPS-stimulation and measured after 1 to 5 hrs by static weight bearing assay; type: functional, organism-based
Mus musculus [8] = test: Antiinflammatory activity against Swiss mouse model of LPS-induced peritonitis assessed as decrease in total ROS level at 30 mg/kg, po pretreated for 1 hr followed by LPS-stimulation and measured after 3 hrs by H2DCF-DA staining based confocal microscopic method; type: functional, organism-based
Mus musculus [9] = test: Analgesic activity in Swiss mouse model of LPS-induced inflammatory pain assessed as reduction in thermal hyperalgesia at 30 to 100 mg/kg, po pretreated for 1 hr followed by LPS-stimulation and measured after 1 to 5 hrs by hot plate technique; type: functional, organism-based
Mus musculus [10] = test: Antioxidant activity in Swiss mouse model of LPS-induced inflammatory pain assessed as ABTS radical scavenging activity in hind paw skin at mg/kg, po pretreated for 1 hr followed by LPS-stimulation and measured after 3 hrs by colorimetric based assay; type: functional, organism-based
Mus musculus [11] = test: Inhibition of NFkappaB in Swiss mouse peritoneal exudates model of LPS-induced inflammatory pain at 30 mg/kg, po pretreated for 1 hr followed by LPS-stimulation and measured after 3 hrs by Alexa Fluor 647 staining based immunofluorescence assay; type: organism-based
Mus musculus [12] = test: Antiinflammatory activity against Swiss mouse model of LPS-induced inflammatory pain assessed as decrease in IL1beta level in hind paw skin at 30 mg/kg, po pretreated for 1 hr followed by LPS-stimulation and measured after 3 hrs by ELISA; type: functional, organism-based
Mus musculus [13] = test: Antioxidant activity in Swiss mouse model of LPS-induced inflammatory pain assessed as decrease in superoxide production in hind paw skin at mg/kg, po pretreated for 1 hr followed by LPS-stimulation and measured after 3 hrs by colorimetric based NBT assay; type: functional, organism-based
Mus musculus [14] = test: Antiinflammatory activity against Swiss mouse model of LPS-induced inflammatory pain assessed as decrease in TNFalpha level in peritoneal cavity at 30 mg/kg, po pretreated for 1 hr followed by LPS-stimulation and measured after 3 hrs by ELISA; type: functional, organism-based
Mus musculus [15] = test: Analgesic activity in LPS-induced Swiss mouse assessed as decrease in neutrophil recruitment in hind paw skin by measuring MPO activity at 10 to 100 mg/kg, po pretreated for 1 hr followed by LPS-stimulation and measured after 5 hrs by colorimetric assay; type: functional, organism-based
Mus musculus [16] = test: Antiinflammatory activity against Swiss mouse model of LPS-induced peritonitis assessed as decrease in leukocyte recruitment in peritoneal cavity by measuring reduction in mononuclear cells at 30 to 100 mg/kg, po pretreated for 1 hr followed by LPS-stimulation and measured after 3 hrs by light microscopic based Neubauer chamber cell counting method; type: functional, organism-based
Mus musculus [17] = test: Antiinflammatory activity against Swiss mouse model of LPS-induced inflammatory pain assessed as decrease in IL6 level in peritoneal cavity at 30 mg/kg, po pretreated for 1 hr followed by LPS-stimulation and measured after 3 hrs by ELISA; type: functional, organism-based
[18] = molecular target: Transcription factor p65 (Mus musculus) (UniProt Q04207); test: Inhibition of NFkappaB in Swiss mouse peritoneal exudates model of LPS-induced inflammatory pain assessed as reduction area of colocalization between phosphorylated NFkappaB p65 and DAPI at 30 mg/kg, po pretreated for 1 hr followed by LPS-stimulation and measured after 3 hrs by Alexa Fluor 647 staining based immunofluorescence assay; type: organism-based
Mus musculus [19] = test: Antiinflammatory activity against Swiss mouse model of LPS-induced inflammatory pain assessed as decrease in IL1beta level in peritoneal cavity at 30 mg/kg, po pretreated for 1 hr followed by LPS-stimulation and measured after 3 hrs by ELISA; type: functional, organism-based
Mus musculus [20] = test: Antiinflammatory activity against Swiss mouse model of LPS-induced peritonitis assessed as decrease in leukocyte recruitment in peritoneal cavity by measuring reduction in total leukocytes at 30 to 100 mg/kg, po pretreated for 1 hr followed by LPS-stimulation and measured after 3 hrs by light microscopic based Neubauer chamber cell counting method; type: functional, organism-based
Mus musculus [21] = test: Antiinflammatory activity against Swiss mouse model of LPS-induced inflammatory pain assessed as decrease in TNFalpha level in hind paw skin at 30 mg/kg, po pretreated for 1 hr followed by LPS-stimulation and measured after 3 hrs by ELISA; type: functional, organism-based
Mus musculus [22] = test: Antiinflammatory activity against Swiss mouse model of LPS-induced inflammatory pain assessed as decrease in IL6 level in hind paw skin at 30 mg/kg, po pretreated for 1 hr followed by LPS-stimulation and measured after 3 hrs by ELISA; type: functional, organism-based
Mus musculus [23] = test: Antiinflammatory activity against Swiss mouse model of LPS-induced peritonitis assessed as decrease in leukocyte recruitment in peritoneal cavity by measuring reduction in polymorphonuclear at 30 to 100 mg/kg, po pretreated for 1 hr followed by LPS-stimulation and measured after 3 hrs by light microscopic based Neubauer chamber cell counting method; type: functional, organism-based
Mus musculus [24] = test: Antioxidant activity in Swiss mouse model of LPS-induced inflammatory pain assessed as total ferric ion reducing activity in hind paw skin at mg/kg, po pretreated for 1 hr followed by LPS-stimulation and measured after 3 hrs by colorimetric based FRAP assay; type: functional, organism-based
Mus musculus [25] = test: Antioxidant activity in Swiss mouse model of LPS-induced inflammatory pain assessed as increase in GSH level in hind paw skin at mg/kg, po pretreated for 1 hr followed by LPS-stimulation and measured after 3 hrs by colorimetric based assay; type: functional, organism-based

Chain of Transcription factor p65 (Mus musculus) (Q04207 whole entry): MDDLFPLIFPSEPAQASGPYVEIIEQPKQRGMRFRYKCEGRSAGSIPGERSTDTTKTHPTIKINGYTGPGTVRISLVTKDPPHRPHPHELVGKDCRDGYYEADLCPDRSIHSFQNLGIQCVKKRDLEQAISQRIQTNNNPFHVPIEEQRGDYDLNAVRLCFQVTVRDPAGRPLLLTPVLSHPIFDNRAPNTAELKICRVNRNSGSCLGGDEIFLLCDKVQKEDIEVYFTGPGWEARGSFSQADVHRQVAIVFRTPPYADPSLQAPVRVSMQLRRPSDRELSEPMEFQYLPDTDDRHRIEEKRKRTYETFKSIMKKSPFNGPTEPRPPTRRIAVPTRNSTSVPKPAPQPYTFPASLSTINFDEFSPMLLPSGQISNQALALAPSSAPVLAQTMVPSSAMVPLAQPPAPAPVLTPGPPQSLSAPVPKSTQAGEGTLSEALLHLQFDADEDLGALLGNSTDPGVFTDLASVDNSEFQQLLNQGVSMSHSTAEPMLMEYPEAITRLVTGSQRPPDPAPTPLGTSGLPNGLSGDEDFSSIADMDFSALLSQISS

COc1ccc(-c2cc(=O)c3c(O)cc(O[C@@H]4O[C@H](CO[C@@H]5O[C@@H](C)[C@H](O)[C@@H](O)[C@H]5O)[C@@H](O)[C@H](O)[C@H]4O)cc3o2)cc1O
active: inhibition [1] | Activity (Mus musculus [2]) | Activity (Mus musculus [3]) | Activity (Mus musculus [4]) | Activity (Mus musculus [5]) | Activity (Mus musculus [6]) | Activity (Mus musculus [7]) | Activity (Mus musculus [8]) | Activity (Mus musculus [9]) | Activity (Mus musculus [10]) | inhibition (Mus musculus [11]) | Activity (Mus musculus [12]) | Activity (Mus musculus [13]) | Activity (Mus musculus [14]) | Activity (Mus musculus [15]) | Activity (Mus musculus [16]) | Activity (Mus musculus [17]) | inhibition [18] | Activity (Mus musculus [19]) | Activity (Mus musculus [20]) | Activity (Mus musculus [21]) | Activity (Mus musculus [22]) | Activity (Mus musculus [23]) | Activity (Mus musculus [24]) | Activity (Mus musculus [25])
